# Laboratory results taken from patent US12384787B2, “Fused heterocyclic compounds and their use as pest control agents” (PI INDUSTRIES LTD., priority 2019, dated 2025).
# Tested on: Plutella xylostella
# Test: Plutella xylostella leaf dip method (cabbage leaves)
# Type: in vivo
# Conditions: foliar, second instar larvae, 72 h after release, dead and moribund combined, compared to untreated control, read-out: Percent mortality
# Description: The leaf dip method was used for testing, wherein the required quantity of the compounds were weighed and dissolved in a surfactant solution, kept on a Vortex at 2000 rpm with zirconia beads for 90 min for proper mixing and then diluted with 0.01% Triton-X solution to the desired test concentration. Cabbage leaves were dipped in the solution for 10 seconds, shade dried for 20 min and then transferred to bioassay trays. A single second instar larva was released into each bioassay tray cell and the tray was covered with a lid. The bio-assay trays were kept under laboratory conditions at a temperature of 25° C. and relative humidity of 70%. Observations on dead, moribund and living larvae were recorded at 72 h after the release. Percent mortality was calculated by combining dead and moribund larvae and comparing the result to the one of the untreated control.
row,SMILES,mortality at 300 ppm [%]
1,"CCS(=O)(=O)c1cc2cc(C(F)(F)F)ccn2c1-c1nc2cc(C(F)(F)F)cnc2n1C [Compound 5, 2-(2-(Ethylsulfonyl)-7-(trifluoromethyl)indolizin-3-yl)-3-methyl-6-(trifluoromethyl)-3H-imidazo[4,5-b]pyridine]",> 70
2,"CCS(=O)(=O)c1cc2c(-c3cc(Cl)cc(Cl)c3)cccn2c1-c1nc2cc(C(F)(F)F)cnc2n1C [Compound 6, 2-(8-(3,5-Dichlorophenyl)-2-(ethylsulfonyl)indolizin-3-yl)-3-methyl-6-(trifluoromethyl)-3H-imidazo[4,5-b]pyridine]",> 70
3,"CCS(=O)(=O)c1nn2c(C)cc(C)nc2c1-c1nc2cc(C(F)(F)F)ncc2n1C [Compound 12, 2-(2-(Ethylsulfonyl)-5,7-dimethylpyrazolo[1,5-a]pyrimidin-3-yl)-3-methyl-6-(trifluoromethyl)-3H-imidazo[4,5-c]pyridine]",> 70
4,"CCS(=O)(=O)c1nn2cccnc2c1-c1nc2cc(S(=O)(=O)C(F)(F)F)ccc2o1 [Compound 18, 2-(2-(Ethylsulfonyl)pyrazolo[1,5-a]pyrimidin-3-yl)-5-((trifluoromethyl)sulfonyl)benzo[d]oxazole]",> 70
5,"CCSc1nn2c(-c3ccc(F)cc3)ccnc2c1-c1nc2cc(C(F)(F)F)ncc2n1C [Compound 20, 2-(2-(Ethylthio)-7-(4-fluorophenyl)pyrazolo[1,5-a]pyrimidin-3-yl)-3-methyl-6-(trifluoromethyl)-3H-imidazo[4,5-c]pyridine]",> 70
6,"CCSc1nn2c(-c3ccc(OC(F)(F)F)cc3)ccnc2c1-c1nc2cc(C(F)(F)F)cnc2n1C [Compound 27, 2-(2-(Ethylthio)-7-(4-(trifluoromethoxy)phenyl)pyrazolo[1,5-a]pyrimidin-3-yl)-3-methyl-6-(trifluoromethyl)-3H-imidazo[4,5-b]pyridine]",> 70
7,"CCS(=O)(=O)c1nn2c(-c3ccc(OC(F)(F)F)cc3)ccnc2c1-c1nc2cc(C(F)(F)F)cnc2n1C [Compound 29, 2-(2-(Ethylsulfonyl)-7-(4-(trifluoromethoxy)phenyl)pyrazolo[1,5-a]pyrimidin-3-yl)-3-methyl-6-(trifluoromethyl)-3H-imidazo[4,5-b]pyridine]",> 70
8,"CCS(=O)(=O)c1nn2c(-c3ccc(OC(F)(F)F)cc3)ccnc2c1-c1nc2cc(C(F)(F)F)ncc2n1C [Compound 30, 2-(2-(Ethylsulfonyl)-7-(4-(trifluoromethoxy)phenyl)pyrazolo[1,5-a]pyrimidin-3-yl)-3-methyl-6-(trifluoromethyl)-3H-imidazo[4,5-c]pyridine]",> 70
9,"CCS(=O)(=O)c1nn2c(-c3ccc(F)cc3)ccnc2c1-c1nc2cc(S(=O)(=O)C(F)(F)F)ccc2o1 [Compound 34, 2-(2-(Ethylsulfonyl)-7-(4-fluorophenyl)pyrazolo[1,5-a]pyrimidin-3-yl)-5-((trifluoromethyl)sulfonyl)benzo[d]oxazole]",> 70
10,"CCSc1nn2c(-c3ccc(Cl)cc3)ccnc2c1-c1nc2cc(C(F)(F)F)ncc2n1C [Compound 35, 2-(7-(4-Chlorophenyl)-2-(ethylthio)pyrazolo[1,5-a]pyrimidin-3-yl)-3-methyl-6-(trifluoromethyl)-3H-imidazo[4,5-c]pyridine]",> 70
11,"CCS(=O)(=O)c1nn2c(-c3ccc(Cl)cc3)ccnc2c1-c1nc2cc(S(=O)(=O)C(F)(F)F)ccc2o1 [Compound 40, 2-(7-(4-Chlorophenyl)-2-(ethylsulfonyl)pyrazolo[1,5-a]pyrimidin-3-yl)-5-((trifluoromethyl)sulfonyl)benzo[d]oxazole]",> 70
12,"CCS(=O)(=O)c1nn2c(-c3cc(Cl)cc(Cl)c3)ccnc2c1-c1nc2cc(S(=O)(=O)C(F)(F)F)ccc2o1 [Compound 43, 2-(7-(3,5-Dichlorophenyl)-2-(ethylsulfonyl)pyrazolo[1,5-a]pyrimidin-3-yl)-5-((trifluoromethyl)sulfonyl)benzo[d]oxazole]",> 70
